Legend:
[1] = Solubility and aggregation in PBS, serum or organic solvent; details: for solubility: medium as stated in the value; for aggregation: PBS and serum
[2] = Emission (fluorescence) spectra of cyanine fluorophores in different solvents
[3] = Absorbance spectra of cyanine fluorophores in different solvents (absorbance maximum, molar absorptivity)
[4] = pH 7.4 PBS, excitation wavelength per compound (figure legends)
[5] = pH 7.4 PBS, at wavelength of maximum absorbance

emission maximum (λmax, emiss) ([2]; dichloromethane) [nm] | absorbance maximum (λmax, abs) ([3]; dichloromethane) [nm] | molar absorptivity (ε) ([3]; dichloromethane) | emission maximum (λmax, emiss) ([2]; acetonitrile) [nm] | absorbance maximum (λmax, abs) ([3]; acetonitrile) [nm] | emission maximum (λmax, emiss) ([2]; 0.1% formic acid in acetonitrile, excitation at 800 nm) [nm] | absorbance maximum (λmax, abs) ([3]; 0.1% formic acid in acetonitrile) [nm] | SMILES | solubility [1] | emission maximum (λmax, emiss) ([2]; methanol) [nm] | absorbance maximum (λmax, abs) ([3]; methanol) [nm] | molar absorptivity (ε) ([3]; methanol) | aggregation [1] | emission maximum (λmax, emiss) ([2]; 10% (v/v) FBS in pH 7.4 PBS) [nm] | emission maximum (λmax, emiss) [2, 4] [nm] | absorbance maximum (λmax, abs) ([3]; 10% (v/v) FBS in pH 7.4 PBS) [nm] | molar absorptivity (ε) ([3]; 10% (v/v) FBS in pH 7.4 PBS) | absorbance maximum (λmax, abs) ([3]; pH 7.4 PBS) [nm] | molar absorptivity (ε) [3, 5]
990 | 940 | 134,658 M^−1cm^−1 |  |  |  |  | CN1/C(=C/C=C2\CCC3CCC(/C=C/C4=[N+](C)c5ccccc5C4(C)C)=C(Cl)C3=C2Cl)C(C)(C)c2ccccc21 (centres unmarked) [N-methyl-NIR-990] | organic soluble | 960 | 922 | 46,886 M^−1cm^−1 |  |  |  |  |  |  | 
 |  |  | 780 | 600 |  |  | CN1/C(=C/C=C2\CCC3CCC(C=O)=C4C3=C2c2ccccc24)C(C)(C)c2ccccc21 (centres unmarked) [Compound 23] |  |  |  |  |  |  |  |  |  |  | 
 |  |  | 720 | 540 | 906 | 872 | CCCC/N=C/C1=C2C3=C(/C(=C/C=C4/N(C)c5ccccc5C4(C)C)CCC3CC1)c1ccccc12 (centres unmarked) [Compound 26] |  |  |  |  |  |  |  |  |  |  | 

Further lines, the molecule ahead of its results:

SMILES | emission maximum (λmax, emiss) ([2]; dichloromethane) [nm] | absorbance maximum (λmax, abs) ([3]; dichloromethane) [nm] | molar absorptivity (ε) ([3]; dichloromethane) | emission maximum (λmax, emiss) ([2]; acetonitrile) [nm] | absorbance maximum (λmax, abs) ([3]; acetonitrile) [nm] | emission maximum (λmax, emiss) ([2]; 0.1% formic acid in acetonitrile, excitation at 800 nm) [nm] | absorbance maximum (λmax, abs) ([3]; 0.1% formic acid in acetonitrile) [nm] | solubility [1] | emission maximum (λmax, emiss) ([2]; methanol) [nm] | absorbance maximum (λmax, abs) ([3]; methanol) [nm] | molar absorptivity (ε) ([3]; methanol) | aggregation [1] | emission maximum (λmax, emiss) ([2]; 10% (v/v) FBS in pH 7.4 PBS) [nm] | emission maximum (λmax, emiss) [2, 4] [nm] | absorbance maximum (λmax, abs) ([3]; 10% (v/v) FBS in pH 7.4 PBS) [nm] | molar absorptivity (ε) ([3]; 10% (v/v) FBS in pH 7.4 PBS) | absorbance maximum (λmax, abs) ([3]; pH 7.4 PBS) [nm] | molar absorptivity (ε) [3, 5]
CC1(C)C(/C=C/C2=C3Oc4ccc(C(=O)N(CCCS(=O)(=O)O)CCC(=O)O)cc4OC4=C3C(CC2)CC/C4=C\C=C2\N(CCCCS(=O)(=O)O)c3ccc(S(=O)(=O)[O-])cc3C2(C)C)=[N+](CCCCS(=O)(=O)O)c2ccc(S(=O)(=O)O)cc21.N.N.N.N (centres unmarked) [Compound 10] |  |  |  |  |  |  |  |  | 896 | 869 | 187,000 M^−1cm^−1 | eliminated aggregation in both PBS and serum | 900 | 896 | 871 | 137,000 M^−1cm^−1 | 862 | 145,000 M^−1cm^−1
CC1(C)C(/C=C/C2=C3Oc4ccc(CCC(=O)O)cc4OC4=C3C(CC2)CC/C4=C\C=C2\N(CCCCS(=O)(=O)[O-])c3ccc(S(=O)(=O)[O-])cc3C2(C)C)=[N+](CCCCS(=O)(=O)[O-])c2ccc(S(=O)(=O)[O-])cc21.[Na+].[Na+].[Na+] (centres unmarked) [NIR-900-Et] |  |  |  |  |  |  |  |  | 890 | 860 | 253,000 M^−1cm^−1 |  | 900 | 900 | 864 | 148,000 M^−1cm^−1 | 856 | 172,000 M^−1cm^−1
CC1(C)C(/C=C/C2=C3Oc4ccc(C(=O)O)cc4OC4=C3C(CC2)CC/C4=C\C=C2\N(CCCCS(=O)(=O)[O-])c3ccc(S(=O)(=O)[O-])cc3C2(C)C)=[N+](CCCCS(=O)(=O)[O-])c2ccc(S(=O)(=O)[O-])cc21.[Na+].[Na+].[Na+] (centres unmarked) [Compound 6] |  |  |  |  |  |  |  |  | 896 | 866 | 208,000 M^−1cm^−1 | only moderate aggregation | 896 | 896 | 868 | 192,000 M^−1cm^−1 | 860 | 191,000 M^−1cm^−1
CC1(C)C(/C=C/C2=C3C4=C(/C(=C/C=C5/N(CCCCS(=O)(=O)O)c6ccc(S(=O)(=O)[O-])cc6C5(C)C)CCC4CC2)c2cc(C(=O)O)ccc23)=[N+](CCCCS(=O)(=O)O)c2ccc(S(=O)(=O)O)cc21.N.N.N (centres unmarked) [Compound 8] |  |  |  |  |  |  |  | water-soluble | 1103 | 1072 | 117,000 M^−1cm^−1 |  | 1086 | 1084 | 1062 | 99,000 M^−1cm^−1 | 1058 | 70,000 M^−1cm^−1
CC1(C)C(/C=C/C2=C3Sc4ccccc4SC4=C3C(CC2)CC/C4=C\C=C2\N(CCCCS(=O)(=O)[O-])c3ccc(S(=O)(=O)[O-])cc3C2(C)C)=[N+](CCCCS(=O)(=O)[O-])c2ccc(S(=O)(=O)[O-])cc21.[Na+].[Na+].[Na+] (centres unmarked) [NIR-950] |  |  |  |  |  |  |  |  | 960 | 890 | 193,000 M^−1cm^−1 |  | 955 | 950 | 902 | 128,000 M^−1cm^−1 | 880 | 79,000 M^−1cm^−1
CC1(C)C(/C=C/C2=C3Oc4ccccc4OC4=C3C(CC2)CC/C4=C\C=C2\N(CCCCS(=O)(=O)[O-])c3ccccc3C2(C)C)=[N+](CCCCS(=O)(=O)[O-])c2ccccc21.[Na+] (centres unmarked) [BisSO3-NIR-890] |  |  |  |  |  |  |  |  | 890 | 860 | 275,000 M^−1cm^−1 |  | 900 | 890 | 877 | 187,000 M^−1cm^−1 | 689 | 
CN1/C(=C/C=C2\CCC3CCC(/C=C/C4=[N+](C)c5ccccc5C4(C)C)=C4C3=C2c2ccccc24)C(C)(C)c2ccccc21 (centres unmarked) [Compound 25] |  |  |  |  |  |  |  |  | 1110 | 1066 |  |  |  |  |  |  |  | 

From patent US11465993B2, “Water soluble novel cyanine fluorophore with tunable properties between near IR and SWIR region for in vivo imaging” (The USA, as represented by the Secretary, Department of …, priority 2018, dated 2022)
